Patent US12441751B2, “Metabolic labeling and molecular enhancement of biological materials using bioorthogonal reactions” (priority 2016, dated 2025)
“Also recorded” adds a separate entry of the source.

Assays:
[1] = test system: decellularized rat lung scaffolds; assay: In vivo metabolic labeling of rat lung ECM with azide-labeled sugars
Procedure: All animal experiments were approved by the Massachusetts General Hospital Institutional Animal Care and Use Committee and performed in compliance with the Animal Welfare Act. Male Sprague-Dawley rats (100-125 g, Charles River Laboratories) was administered with metabolic labeling reagents (Ac4GalNAz, Ac4GlcNAz or Ac4ManNAz) (30 mg/day, Click Chemistry Tools) via intraperitoneal injection daily for three days. […] Decellularized organ and tissue scaffolds were washed sequentially with distilled water, 1% Triton X and PBS.
(§1) All samples were fixed with 4% paraformaldehyde (Boston BioProducts), paraffin-embedded, and sectioned at 5-μm thickness. Following deparaffinization, rehydration and antigen retrieval using Antigen Unmasking Solution (Vector Laboratories), the sections were processed for either on-section click reaction or regular histological staining. For on-section click reaction, sections of acellular organ scaffolds derived from in vivo or ex vivo metabolic engineering were incubated with Biotin-Alkyne click reaction mix, with and without copper (II) sulfate, for 1 hour at room temperature, followed by extensive washing with PBS. For regular histological staining of biotin and Laminin, the sections were incubated with Rabbit-anti-Laminin antibody (Abcam, ab11575, 1:200) overnight at 4° C., followed by staining with Alexa Fluor 488-conjugated Donkey-anti-Rabbit antibody (A-21206, 1:500) and Alexa Fluor 647-conjugated Streptavidin (Life Technologies, S-32357, 1:500). Images were acquired using a Nikon Eclipse TE200 microscope and NIS-Elements imaging software. The fluorescence intensity of Azide-Biotin-Streptavidin and Laminin staining was quantified using ImageJ (NIH).
To conjugate Biotin-Alkyne onto the azide-labeled acellular lung ECM for Western blot analysis, a small piece of lung tissue was homogenized with gentleMACS Dissociator (Miltenyi Biotec) in PBS, and incubated with 1 ml Biotin-Alkyne click reaction mix for 1 hour at room temperature, followed by extensive washing in PBS. The ECM proteins from the clicked lung tissue was extracted using urea buffer as described below. […] Following BCA quantification, the protein samples were analyzed using SDS-PAGE under reducing condition, transferred to nitrocellulose blotting membranes, and incubated with primary antibodies overnight at 4° C., followed by incubation with HRP-conjugated secondary antibodies for 1 hour at room temperature before autoradiography. […]

[2] = test system: decellularized scaffolds of the rat carotid artery, heart, liver, kidney and skin; assay: In vivo metabolic labeling of ECM of other rat organs/tissues
Procedure: Male Sprague-Dawley rats (100-125 g, Charles River Laboratories) was administered with metabolic labeling reagents (Ac4GalNAz, Ac4GlcNAz or Ac4ManNAz) (30 mg/day, Click Chemistry Tools) via intraperitoneal injection daily for three days. […] Full-thickness skin grafts were harvested from the abdomen of the animal and decellularized by immersion with agitation in 1% SDS. Decellularized organ and tissue scaffolds were washed sequentially with distilled water, 1% Triton X and PBS.
as §1
For metabolic engineering of organs/tissues in vivo in the rat model, azide-labeled sugars (300 mg/kg body weight in 70% DMSO) were administered through intraperitoneal injection daily. One day after the last azide-labeled sugar administration, organs/tissues were harvested and perfusion decellularized (See FIGS. 1 and 13). The presence of azide labeling in the decellularized scaffolds were evaluated by performing copper-catalyzed click reaction. […]

[3] = test system: acellular porcine lung ECM; assay: Ex vivo metabolic engineering of porcine left lung ECM; details: 50 μM, one day, perfusion 300 ml/min
Procedure: For ex vivo metabolic engineering of the porcine lung, the left lung was freshly isolated from a male Yorkshire swine (18-20 kg, Tufts University). The isolated porcine left lung was cultured DMEM/F12-FBS medium, with the supplementation of Ac4GalNAz (50 μM) or DMSO (0.1%), for 24 hours in a bioreactor under constant rate perfusion (300 ml/min) through the left main PA. 3 L of medium was initially used and was refreshed once with another 2 L of medium after the initial 16 hours of culture. A parallel oxygenation loop was used during the culture at a flow rate of 150 ml/min. Following culture, the porcine left lung was decellularized by sequential single-pass perfusion through the left main PA with 0.5% SDS, distilled water, 1% Triton X and PBS, adapted from a previously described method (Zhou, H. et al. Bioengineering Human Lung Grafts on Porcine Matrix. Annals of Surgery Publish Ahead of Print (2017)). […] The fluorescence intensity of Azide-Biotin-Streptavidin and Laminin staining was quantified using ImageJ (NIH). […] Following BCA quantification, the protein samples were analyzed using SDS-PAGE under reducing condition, transferred to nitrocellulose blotting membranes, and incubated with primary antibodies overnight at 4° C., followed by incubation with HRP-conjugated secondary antibodies for 1 hour at room temperature before autoradiography. […]

rat lung ECM = assay: Ex vivo metabolic engineering of rat lung ECM; details: 50 μM, one day, bioreactor perfusion 5 ml/min, Cu(I) catalyst in click with biotin-alkyne
Procedure: For ex vivo metabolic engineering of the rat lung, the lung was freshly harvested from a male Sprague-Dawley rat (100-125 g). The isolated rat lung was cultured in 100 ml of DMEM/F12 medium containing 10% fetal bovine serum (DMEM/F12-FBS), with the supplementation of Ac4GalNAz (50 μM) or DMSO (0.1%), for 24 hours in a bioreactor under constant rate perfusion (5 ml/min) through the PA, followed by perfusion decellularization as described above.
All samples were fixed with 4% paraformaldehyde (Boston BioProducts), paraffin-embedded, and sectioned at 5-μm thickness. Following deparaffinization, rehydration and antigen retrieval using Antigen Unmasking Solution (Vector Laboratories), the sections were processed for either on-section click reaction or regular histological staining. […] For regular histological staining of biotin and Laminin, the sections were incubated with Rabbit-anti-Laminin antibody (Abcam, ab11575, 1:200) overnight at 4° C., followed by staining with Alexa Fluor 488-conjugated Donkey-anti-Rabbit antibody (A-21206, 1:500) and Alexa Fluor 647-conjugated Streptavidin (Life Technologies, S-32357, 1:500). […] The fluorescence intensity of Azide-Biotin-Streptavidin and Laminin staining was quantified using ImageJ (NIH). […]
The presence of azide labeling in the decellularized scaffolds were evaluated by performing copper-catalyzed click reaction. […]

[4] = Copper-free click reaction of DBCO-activated biotin on donor lung during cold preservation; parameters: species or system rat; details: DBCO-activated biotin 100 μM in Perfadex on ice, within one hour
Procedure: The procedure involves two steps. In the first step, the donor rat was injected with Ac4GalNAz for three days (as described in Example 4). This allowed for metabolic labeling of the donor lung with azido tags. In the second step, the donor lung with azido labeling was preserved in preservation solution (Perfadex) containing DBCO-activated biotin at 100 μM concentration on ice for 1 hour. The lung was then intensively washed with preservation solution (Perfadex) and prepared for transplantation. The lung is fixed for histological staining of the immobilized biologically active molecule (as exemplified by biotin).
DBCO-activated biotin was used a proof-of-principle.

[5] = Click reaction of azide-labeled decellularized rat epigastric flaps with Vancomycin-alkyne; details: Ac4GalNAz-labeled REF versus DMSO control, Vancomycin-alkyne 100 μM click
Procedure: Vancomycin is made clickable by conjugating an alkyne group to the only primary amine present as described above (see, e.g., FIG. 22, Example 3). The structure of the resulting clickable vancomycin-alkyne was confirmed by LC-MS/MS analysis (FIG. 23). Using the previously described click reaction, Vancomycin was immobilized onto the ECM. Copper-catalyzed click reaction was performed on decellularized rat epigastric flaps by perfusion (0.5 ml/min) using Vancomycin-alkyne (100 μM) and Click-iT® Cell Reaction Buffer Kit (ThermoFisher, Catalog number: C10269) for one hour at room temperature, followed by intensive washing and detection of immobilized vancomycin using a vancomycin-specific antibody.

CC(=O)OC[C@H]1OC(OC(C)=O)[C@H](NC(=O)CN=[N+]=[N-])[C@@H](OC(C)=O)[C@H]1OC(C)=O (stereo partly shown) [Ac4GalNAz, tetraacylated N-azidoacetylgalactosamine]
metabolic labeling efficiency of decellularized rat lung scaffolds ([1]; 3 days of metabolic labeling in donor rats, comparing to Ac4GlcNAz and Ac4ManNAz): superior labeling efficiency | biotin labeling of isolated lung ECM proteins by western blot ([1]; after click conjugation with biotin-alkyne): abundance of biotin labeling | metabolic azide labeling intensity in acellular lungs ([1]; azide-biotin-streptavidin intensity normalized to Laminin, compared with Ac4ManNAz and Ac4GlcNAz): strongest | in vivo metabolic azide labeling of decellularized scaffolds ([2]; rat carotid artery, heart, liver, kidney and skin, three-day intraperitoneal administration): efficient; also recorded: strong and specific ECM labeling | metabolic labeling of decellularized scaffolds of blood vessels and skin flaps ([2]; rat, 3 days of metabolic labeling): efficient metabolic labeling | azide incorporation into acellular porcine lung ECM after ex vivo culture [3]: specific and covalent azide incorporation | azide labeling of the lung ECM after ex vivo culture (rat lung ECM): robust covalent azide labeling

O=C(O)CCCC[C@@H]1SC[C@@H]2NC(=O)N[C@@H]21 [biotin]
immobilization of biotin onto donor lung tissue [4]: high efficiency

CN[C@H](CC(C)C)C(=O)N[C@H]1C(=O)N[C@@H](CC(N)=O)C(=O)N[C@H]2C(=O)N[C@H]3C(=O)N[C@H](C(=O)N[C@H](C(=O)O)c4cc(O)cc(O)c4-c4cc3ccc4O)[C@H](O)c3ccc(c(Cl)c3)Oc3cc2cc(c3O[C@@H]2O[C@H](CO)[C@@H](O)[C@H](O)[C@H]2O[C@H]2C[C@](C)(N)[C@H](O)[C@H](C)O2)Oc2ccc(cc2Cl)[C@H]1O [vancomycin, Vancomycin]
vancomycin staining fluorescence intensity on whole mount REF ([5]; p<0.001): increase | vancomycin staining fluorescence intensity on REF cross-sections ([5]; p<0.05): increase
